Activity calls are given as the source filed them. The rule behind the calls is not given here.
What was measured:
[1] = (§1) Inhibition of RANKL-induced osteoclastogenesis in mouse RAW264 cells at 50 uM after 4 days by TRAP staining based assay relative to control; type: functional; details: RAW264.7, 96 h
RAW264 [2] = experiment: as §1; type: functional
[3] = Cytotoxicity against mouse RAW264 cells at 50 uM; type: cell-based; details: raw264, 50 µM
RAW264 [4] = experiment: Inhibition of RANKL-induced osteoclastogenesis in mouse RAW264 cells after 4 days by TRAP staining based assay; type: functional, cell-based

SMILES | inhibition at 50 µM [1] [%] | inhibition (RAW264 [2]) | Activity [3] | inhibition (RAW264 [4])
C[C@]12CCC[C@](C)(C(=O)O)[C@@H]1CC[C@@]1(C)C3=C(CC[C@H]21)[C@H]1C[C@H](C(=O)O)[C@@H]3O1 | 47 |  |  | 
C[C@]12CCC[C@](C)(C(=O)O)[C@@H]1CC[C@@]1(C)c3cocc3CC[C@H]21 |  | inactive |  | 
C[C@]12CCC[C@](C)(C(=O)O)[C@@H]1CC[C@@]1(C)C3=C(CC[C@H]21)[C@@H]1O[C@H]3C[C@@H]1C(=O)O | 70 |  | Non-Toxic | Dose-dependent effect
C[C@]12CCC[C@](C)(C(=O)O)[C@@H]1CC[C@@]1(C)C3=C(CC[C@H]21)[C@H]1O[C@@H]3C[C@@H]1C(=O)O | 28 |  |  | 
C[C@]12CCC[C@](C)(C(=O)O)[C@@H]1CC[C@@]1(C)C3=C(CC[C@H]21)[C@@H]1C[C@@H](C(=O)O)[C@H]3O1 | 31 |  |  | 
